# Data taken from patent US12630529B2, “GCN2 modulator compounds” (ALESTA THERAPEUTICS BV, priority 2020, dated 2026).
# Target: T1, GCN2 (Mus musculus, UniProt Q9QZ05)
# T1 construct: endogenous in cells; host or cells: Neuro 2a (N2a)
# Assay: GCN2 inhibition cell-based assay (P-GCN2 Western blot in Neuro 2a cells)
# Details: amino acid deprived media (DMEM lacking L-cysteine and methionine), 3 hours
# Experimental: Neuro 2a cells (N2a) were maintained at 37° C. and 5% CO2 in DMEM/F12 medium (Fisher Scientific) supplemented with 10% fetal bovine serum and 1% penicillin-streptomycin (complete medium). 300,000 cells/well were seeded in flat bottom 6 well plates 48 hours before treatment with the compounds.
# Testing compounds were prepared at different concentrations ranging from 10 μM to 0.1 nM on DMEM medium lacking L-cysteine and methionine (DMEM-CM) (Gibco) and supplemented with 1% penicillin-streptomycin. Complete medium was used as control of non-stressed condition. After 48 hours, the medium was removed from each well and 2 mL per well of each treatment was added. Cells were treated for 3 hours at 37° C. and 5% CO2.
# After the incubation time, each well was washed with sterile 1×PBS and then 100 μL of ice-cold lysis buffer supplemented with phosphatase and protease inhibitors was added. Lysates were transferred to 1.5 mL tubes and sonicated for 3 min, and total protein amounts were quantified using BCA assay (e.g., BCA Protein Assay Kit; Pierce) according to manufacturer instructions. Equal amount of proteins was loaded on SDS-PAGE gels for electrophoresis and then transferred onto 0.2 µm filter pore PVDF membranes.
# Membranes were then blocked in blocking buffer containing 3% BSA/0.1% Tween/1×Tris-buffered saline (TBS) for 1 hour and then incubated overnight at 4° C. with agitation with anti-pGCN2 primary antibody (Abcam ab-75836), diluted 1:1,000 in blocking buffer. […] (Sigma Aldrich) was used as a loading control.
# Membranes were then incubated with the corresponding secondary antibody to detect immune-reactive bands using enhanced chemiluminescence (e.g., ECL Western Blotting Substrate Pierce).
# Images were acquired (e.g., using Chemidoc™ equipment) and quantitated by densitometry using ImageJ software. IC50 values were determined from a concentration-response curve using GraphPad prism software.
# IC50 values from P-GCN2 inhibition assay after induction with amino acid deprived media in the presence of different concentrations of test compounds are shown in Table 2. For IC50 values: +++ refers to <10 nM of test compound; ++ refers to 10 nM to 100 nM of test compound; + refers to 100 nM to 1,000 nM of test compound and − refers to >1,000 nM of test compound.
# Under GCN2-mediated stress conditions, resulting from an amino acid deprived medium, GCN2 is generally phosphorylated. Accordingly, inhibition of GCN2 phosphorylation as a result of the test compound indicates inhibition of the GCN2 pathway.
# T1 sequence (Q9QZ05 whole entry): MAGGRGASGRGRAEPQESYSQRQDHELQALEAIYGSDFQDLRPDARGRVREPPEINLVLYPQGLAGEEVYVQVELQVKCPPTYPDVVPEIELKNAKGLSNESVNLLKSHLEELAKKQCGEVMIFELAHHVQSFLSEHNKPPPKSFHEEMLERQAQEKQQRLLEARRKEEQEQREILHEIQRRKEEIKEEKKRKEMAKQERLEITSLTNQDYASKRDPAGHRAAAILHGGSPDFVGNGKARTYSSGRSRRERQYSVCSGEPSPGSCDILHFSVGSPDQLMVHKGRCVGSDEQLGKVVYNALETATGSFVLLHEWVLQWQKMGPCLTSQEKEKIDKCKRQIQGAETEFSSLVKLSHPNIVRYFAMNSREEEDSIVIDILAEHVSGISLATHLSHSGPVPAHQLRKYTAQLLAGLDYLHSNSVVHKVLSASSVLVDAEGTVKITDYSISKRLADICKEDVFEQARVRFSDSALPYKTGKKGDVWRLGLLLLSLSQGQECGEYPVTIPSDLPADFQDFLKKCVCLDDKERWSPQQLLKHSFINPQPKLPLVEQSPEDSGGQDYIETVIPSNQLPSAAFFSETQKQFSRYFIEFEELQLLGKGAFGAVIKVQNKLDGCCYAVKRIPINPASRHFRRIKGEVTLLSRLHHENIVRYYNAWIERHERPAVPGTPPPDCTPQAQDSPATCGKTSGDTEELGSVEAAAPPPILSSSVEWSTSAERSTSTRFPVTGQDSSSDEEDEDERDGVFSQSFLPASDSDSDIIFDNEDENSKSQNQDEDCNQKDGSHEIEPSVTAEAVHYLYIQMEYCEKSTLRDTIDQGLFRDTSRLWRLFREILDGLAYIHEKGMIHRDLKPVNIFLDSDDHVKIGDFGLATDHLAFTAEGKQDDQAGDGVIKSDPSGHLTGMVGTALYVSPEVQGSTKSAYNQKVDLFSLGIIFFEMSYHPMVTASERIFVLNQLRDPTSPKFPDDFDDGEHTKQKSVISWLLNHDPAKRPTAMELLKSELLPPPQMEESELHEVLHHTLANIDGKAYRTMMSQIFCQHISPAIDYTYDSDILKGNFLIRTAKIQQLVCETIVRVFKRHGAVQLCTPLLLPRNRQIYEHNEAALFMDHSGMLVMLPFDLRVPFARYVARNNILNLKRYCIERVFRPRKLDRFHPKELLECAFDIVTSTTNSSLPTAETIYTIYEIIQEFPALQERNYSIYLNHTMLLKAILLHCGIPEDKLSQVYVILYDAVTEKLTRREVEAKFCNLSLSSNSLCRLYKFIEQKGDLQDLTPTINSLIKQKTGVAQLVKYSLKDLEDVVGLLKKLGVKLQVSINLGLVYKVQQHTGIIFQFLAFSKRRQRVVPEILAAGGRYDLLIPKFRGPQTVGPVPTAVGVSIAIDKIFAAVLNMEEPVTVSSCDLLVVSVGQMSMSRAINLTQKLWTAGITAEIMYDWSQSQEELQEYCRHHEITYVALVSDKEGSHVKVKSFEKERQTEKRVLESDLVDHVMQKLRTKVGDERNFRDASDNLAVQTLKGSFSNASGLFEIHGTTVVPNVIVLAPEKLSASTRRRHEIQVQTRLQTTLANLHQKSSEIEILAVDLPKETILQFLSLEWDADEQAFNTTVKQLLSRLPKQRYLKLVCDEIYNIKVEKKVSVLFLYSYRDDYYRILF
row,Compound,IC50 [nM]
1,Nc1ncc2cc(-c3c(F)ccc(NS(=O)(=O)c4cc(F)ccc4F)c3F)ccc2n1 [Compound 8],> 1000
2,Nc1ncc2cc(-c3c(F)ccc(NS(=O)(=O)c4ccc(Cl)c(Cl)c4)c3F)ccc2n1 [Compound 9],100 to 1000
3,COc1ccc(Cl)cc1S(=O)(=O)Nc1ccc(F)c(-c2ccc3nc(N)ncc3c2)c1F [Compound 10],< 10
4,Cc1c(NS(=O)(=O)c2cc(Cl)ccc2Cl)cccc1-c1ccc2nc(N)ncc2c1 [Compound 11],10 to 100
5,Nc1ncc2cc(-c3ccc(F)c(NS(=O)(=O)c4cc(Cl)ccc4Cl)c3F)ccc2n1 [Compound 12],> 1000
6,Nc1ncc2cc(-c3cccc(NS(=O)(=O)c4cc(Cl)ccc4Cl)c3F)ccc2n1 [Compound 13],< 10
7,Nc1ncc2cc(-c3cc(F)cc(NS(=O)(=O)c4cc(Cl)ccc4Cl)c3)ccc2n1 [Compound 14],> 1000
8,Nc1ncc2cc(-c3c(F)ccc(N[S+]([O-])c4ccc(Cl)cc4Cl)c3F)ccc2n1 (stereo not shown) [Compound 15],100 to 1000
9,Cc1ccc(NS(=O)(=O)c2cc(Cl)ccc2Cl)cc1-c1ccc2nc(N)ncc2c1 [Compound 16],100 to 1000
10,Nc1ncnc2ccc(-c3c(F)ccc(NS(=O)(=O)c4cc(Cl)ccc4Cl)c3F)cc12 [Compound 17],> 1000
11,O=S(=O)(Nc1ccc(F)c(-c2cc(F)c3[nH]cnc3c2)c1F)c1cc(Cl)ccc1Cl [Compound 18],> 1000
12,COc1ncc(Cl)cc1S(=O)(=O)Nc1ccc(F)c(-c2ccc3nc(N)ncc3c2)c1 [Compound 19],100 to 1000
13,COc1ncc(Cl)cc1S(=O)(=O)Nc1ccc(F)c(-c2ccc3nc(N)ccc3c2)c1F [Compound 20],> 1000
14,COc1ncc(Cl)cc1S(=O)(=O)Nc1ccc(F)c(-c2cccc3cnc(N)nc23)c1F [Compound 44],> 1000
15,COc1ncc(Cl)cc1S(=O)(=O)Nc1ccc(F)c(-c2cccc3nc(N)ncc23)c1F [Compound 45],> 1000
16,COc1ncc(Cl)cc1S(=O)(=O)Nc1ccc(F)c(-c2ccc3nc(NCCO)ncc3c2)c1F [Compound 46],< 10
17,CNc1ncc2cc(-c3c(F)ccc(NS(=O)(=O)c4cc(Cl)cnc4OC)c3F)ccc2n1 [Compound 47],< 10
18,COc1ncc(Cl)cc1S(=O)(=O)Nc1cccc(-c2ccc3nc(N)ncc3c2)c1C [Compound 51],< 10
19,Nc1ncc2cc(-c3c(F)ccc(NS(=O)(=O)c4cc(Cl)ccc4C(F)(F)F)c3F)ccc2n1 [Compound 58],< 10
20,Nc1ncc2cc(-c3c(F)ccc(NS(=O)(=O)c4cc(Cl)cc(Cl)c4)c3F)ccc2n1 [Compound 59],< 10
21,Nc1ncc2cc(-c3c(F)ccc(NS(=O)(=O)c4cc(Cl)cc(C(F)(F)F)c4)c3F)ccc2n1 [Compound 63],10 to 100
22,Nc1ncc2cc(-c3c(F)ccc(NS(=O)(=O)c4cccc5cnccc45)c3F)ccc2n1 [Compound 64],< 10
23,COc1ncc(Cl)cc1S(=O)(=O)Nc1ccc(F)c(-c2ccc3nc(N[C@H]4CC[C@H](O)CC4)ncc3c2)c1F [Compound 65],< 10
24,COc1ncc(Cl)cc1S(=O)(=O)Nc1ccc(F)c(-c2ccc3nc(N[C@H](C)CO)ncc3c2)c1F [Compound 66],< 10
25,O=S(=O)(Nc1ccc(F)c(-c2ccc3nc(N[C@H]4CC[C@H](O)CC4)ncc3c2)c1F)c1cc(Cl)ccc1Cl [Compound 67],< 10
26,O=S(=O)(Nc1ccc(F)c(-c2ccc3nc(N[C@H]4CC[C@H](O)CC4)ncc3c2)c1F)c1cc(Cl)cc(CO)c1Cl [Compound 69],< 10
27,Nc1ncc2cc(-c3cccc4c3ccn4S(=O)(=O)c3cc(Cl)ccc3Cl)ccc2n1 [Compound 76],> 1000
28,Nc1ncc2cc(-c3c(F)ccc(NS(=O)(=O)C4CCCCC4)c3F)ccc2n1 [Compound 81],> 1000

row,Compound,IC50 [nM]
1,COc1ncc(Cl)cc1S(=O)(=O)Nc1ccc(F)c(-c2ccc3nc(NC(=O)C(C)(C)C)ncc3c2)c1F [Compound 105],10 to 100
2,CC(=O)Nc1ncc2cc(-c3c(F)ccc(NS(=O)(=O)c4cc(Cl)ccc4Cl)c3F)ccc2n1 [Compound 106],< 10
3,Nc1ccc2cc(-c3c(F)ccc(NS(=O)(=O)c4cc(Cl)ccc4Cl)c3F)ccc2n1 [Compound 107],> 1000
4,Cc1cc(S(=O)(=O)Nc2ccc(F)c(-c3ccc4nc(N)ncc4c3)c2F)c(C)cc1Cl [Compound 109],10 to 100
5,COc1ccc(F)cc1S(=O)(=O)Nc1ccc(F)c(-c2ccc3nc(N)ncc3c2)c1F [Compound 110],> 1000
6,Nc1ncc2c(-c3c(F)ccc(NS(=O)(=O)c4cc(Cl)ccc4Cl)c3F)cccc2n1 [Compound 111],> 1000
7,Nc1ncc2cc(-c3c(F)ccc(NS(=O)(=O)c4cc(F)cc(F)c4)c3F)ccc2n1 [Compound 112],> 1000
8,Cc1cc(C)cc(S(=O)(=O)Nc2ccc(F)c(-c3ccc4nc(N)ncc4c3)c2F)c1 [Compound 113],< 10
9,COc1ccc(S(=O)(=O)Nc2ccc(F)c(-c3ccc4nc(N)ncc4c3)c2F)cc1OC [Compound 115],10 to 100
10,Nc1ncc2cc(-c3c(F)ccc(NS(=O)(=O)c4cccc(F)c4)c3F)ccc2n1 [Compound 116],> 1000
11,COc1ccc(S(=O)(=O)Nc2ccc(F)c(-c3ccc4nc(N)ncc4c3)c2F)cc1C [Compound 117],> 1000
12,COc1ccc(C)cc1S(=O)(=O)Nc1ccc(F)c(-c2ccc3nc(N)ncc3c2)c1F [Compound 118],10 to 100
13,COc1ccc(OC)c(S(=O)(=O)Nc2ccc(F)c(-c3ccc4nc(N)ncc4c3)c2F)c1 [Compound 119],> 1000
14,CCc1ccc(OC)c(S(=O)(=O)Nc2ccc(F)c(-c3ccc4nc(N)ncc4c3)c2F)c1 [Compound 120],> 1000
15,Nc1ncc2cc(-c3c(F)ccc(NS(=O)(=O)c4cc(C(F)(F)F)ccc4C(F)(F)F)c3F)ccc2n1 [Compound 121],< 10
16,Nc1ncc2cc(-c3c(F)ccc(NS(=O)(=O)c4ccc5occc5c4)c3F)ccc2n1 [Compound 122],100 to 1000
17,Nc1ncc2cc(-c3c(F)ccc(NS(=O)(=O)c4cc(F)cc(C(F)(F)F)c4)c3F)ccc2n1 [Compound 123],> 1000
18,Nc1ncc2cc(-c3c(F)ccc(NS(=O)(=O)c4cccc(F)c4F)c3F)ccc2n1 [Compound 124],> 1000
19,Cc1cccc(S(=O)(=O)Nc2ccc(F)c(-c3ccc4nc(N)ncc4c3)c2F)c1 [Compound 125],> 1000
20,O=S(=O)(Nc1ncc(F)c(-c2ccc3nc(NCCO)ncc3c2)c1F)c1cc(Cl)ccc1Cl [Compound 128],< 10
21,COc1ncc(Cl)cc1S(=O)(=O)Nc1ccc(F)c(-c2ccc3nc(N[C@H]4CC[C@@H](O)CC4)ncc3c2)c1F [Compound 129],< 10
22,Nc1ncc2cc(-c3c(F)ccc(NS(=O)(=O)c4cccnc4)c3F)ccc2n1 [Compound 130],> 1000
23,COc1ncc(Cl)cc1S(=O)(=O)Nc1ccc(Cl)c(-c2ccc3nc(N)ncc3c2)c1Cl [Compound 131],10 to 100
24,Nc1ncc2cc(-c3c(F)ccc(NS(=O)(=O)c4ccc(F)c(F)c4)c3F)ccc2n1 [Compound 132],> 1000
25,Cc1ccc(F)cc1S(=O)(=O)Nc1ccc(F)c(-c2ccc3nc(N)ncc3c2)c1F [Compound 133],10 to 100
26,O=S(=O)(Nc1ccc(F)c(-c2ccc3nc(NCCO)ncc3c2)c1F)c1cc(Cl)cc(CO)c1Cl [Compound 134],< 10
27,Nc1ncc2cc(-c3c(F)ccc(NS(=O)(=O)c4cc(C(F)(F)F)ccc4F)c3F)ccc2n1 [Compound 135],100 to 1000
